Consider 22 molecules from US8901313B2, “6,5-heterocyclic propargylic alcohol compounds and uses therefor” (Genentech, Inc., priority 2011, dated 2014).

For test [1], the target named is T1, nuclear factor-kappa B (NF-kB)-inducing kinase (NIK) (Homo sapiens, UniProt Q99558).
T1 construct: made in house; host or cells: baculovirus-infected insect cells
The experiment in a line: NIK Enzyme Inhibition Assay (Transcreener ADP assay). Format: biochemical. The note with it: purified NIK 0.2-1 nM, 10 uM ATP, fluorescence polarization, Morrison's quadratic equation; read-out: inhibitory value (Ki) for NIK. A general note: Polarisation of emitted light reports the rotation of a fluorescent probe.

Test [2] has as its system NF-kB signaling through NIK in human embryonic kidney 293 cells. The experiment in a line: 293-NIK NF-kB-Luciferase reporter assay. The note with it: HEK293, 293 cells with tetracycline-inducible NIK, 1 ug/mL doxycycline, 24 hours, read-out: inhibitory value (IC50) for 293-NIK NF-kB-Luciferase activity. In kind it is cell-based. The text has this:
(1) The first assay was used to profile whether a test compound can inhibit the NF-kB signally through NIK inhibition without affecting cell viability. In this assay, human embryonic kidney 293 cells was stably transfected with a tetracycline-inducible NIK DNA construct containing a cytomegalovirus promoter plus two reporter DNA constructs. One reporter encoded firefly luciferase under the control of three repeats of an NF-kB response element from the ELAM-1 gene and reflects the level of NIK activity in the cells, whereas the other reporter constitutively expressed Renilla luciferase under the control of the herpes simplex virus thymidine kinase promoter and served as a general measure of cell viability. Cells were incubated with different concentrations of compounds (0.2% DMSO final) in medium containing 1 ug/mL doxycycline and 10% tet-system approved fetal bovine serum (Clontech) for 24 hours, after which the reporters' signals were detected using the Dual Glo luciferase detection system (Promega) according to the vendor's protocol. The compounds listed in Table 1 have the corresponding inhibitory value (IC50 in micromolar) for 293-NIK NF-kB-Luciferase activity (values for compounds are presented in the same order as found in Table 1): na, 0.059, na, na, na, 0.105, 0.027, na, 20, 1.2, na, 1.8, 0.0231, 0.879, 0.0361, 0.582, na, 0.142, na, 0.403, 0.059, 0.0331, na, na, 0.0573, 1.5, na, na, 0.0722, na, na, 0.589, 12.7, 3.7, 14.9, na, 0.707, 1, 0.0311, 0.332, 0.309, 0.0142, 0.051, 2.8, 0.129, na, na, 1.5, na, na, na, 1.3, 0.062, 20, 0.31, 0.104, 0.091, 0.037, 0.085, 0.279, na, 0.305, 0.064, 0.332, 0.133, 0.168, 0.217, 0.553, na and na.
(In general: Reporter assays use an easily measured gene product as a stand-in for the process of interest.)

T1 sequence (Q99558 whole entry): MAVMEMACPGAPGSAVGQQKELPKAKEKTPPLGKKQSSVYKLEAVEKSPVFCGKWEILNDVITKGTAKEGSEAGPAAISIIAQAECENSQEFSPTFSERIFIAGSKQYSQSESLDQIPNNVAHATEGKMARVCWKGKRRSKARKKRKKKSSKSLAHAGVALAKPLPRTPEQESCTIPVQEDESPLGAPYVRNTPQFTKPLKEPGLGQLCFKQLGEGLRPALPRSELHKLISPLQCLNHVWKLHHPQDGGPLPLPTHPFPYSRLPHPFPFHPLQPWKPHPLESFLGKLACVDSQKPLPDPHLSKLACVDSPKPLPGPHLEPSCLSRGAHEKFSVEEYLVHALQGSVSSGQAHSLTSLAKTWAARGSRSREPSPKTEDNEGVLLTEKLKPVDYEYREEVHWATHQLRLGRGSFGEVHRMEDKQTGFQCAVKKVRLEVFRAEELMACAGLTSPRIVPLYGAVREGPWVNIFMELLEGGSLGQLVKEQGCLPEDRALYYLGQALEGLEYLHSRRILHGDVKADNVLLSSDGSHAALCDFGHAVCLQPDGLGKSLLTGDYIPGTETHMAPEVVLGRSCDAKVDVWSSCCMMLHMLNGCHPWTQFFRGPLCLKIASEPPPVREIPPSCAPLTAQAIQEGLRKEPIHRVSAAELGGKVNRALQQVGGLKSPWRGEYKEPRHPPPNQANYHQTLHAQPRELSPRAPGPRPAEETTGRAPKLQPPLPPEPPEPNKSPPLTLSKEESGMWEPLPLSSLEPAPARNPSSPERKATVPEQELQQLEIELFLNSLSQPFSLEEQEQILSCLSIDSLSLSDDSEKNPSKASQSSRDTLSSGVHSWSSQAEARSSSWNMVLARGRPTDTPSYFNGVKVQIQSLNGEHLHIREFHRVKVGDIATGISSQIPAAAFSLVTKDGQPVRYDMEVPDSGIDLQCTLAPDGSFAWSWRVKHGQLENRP

As for `N#Cc1ccc2cnn(-c3nc(N)ncc3N)c2c1` [Example T1-9, 1-(2,5-diaminopyrimidin-4-yl)-1H-indazole-6-carbonitrile], the Ki in test [1] was found to be 45.9 nM. Also, the IC50 in test [2] came to 20000 nM.
The matching figures for `CC(O)(C#Cc1ccc2ncn(-c3ccnc(N)n3)c2c1)c1cn[nH]c1` (stereo not drawn) [Example T1-33, 4-(1-(2-aminopyrimidin-4-yl)-1H-benzo[d]imidazol-6-yl)-2-(1H-pyrazol-4-yl)but-3-yn-2-ol]: 23 nM and 12700 nM.
On to `CC(O)(C#Cc1ccc2ncn(-c3ccnc(N)n3)c2c1)C1CC1` (stereo not drawn) [Example T1-34, 4-(1-(2-aminopyrimidin-4-yl)-1H-benzo[d]imidazol-6-yl)-2-cyclopropylbut-3-yn-2-ol], for which the Ki in test [1] is 92.1 nM. In addition, the IC50 in test [2] turned out to be 3700 nM.
Taken in the same sequence, the figures for `CC(O)(C#Cc1ccc2cnn(-c3ccnc(N)n3)c2c1)c1cn[nH]c1` (stereo not drawn) [Example T1-35, 4-(1-(2-aminopyrimidin-4-yl)-1H-indazol-6-yl)-2-(1H-pyrazol-4-yl)but-3-yn-2-ol] were 18 nM and 14900 nM.
The matching figures for `CC(O)(C#Cc1ccc2ncn(-c3ccnc(N)n3)c2c1)CF` (stereo not drawn) [Example T1-37, 4-(1-(2-aminopyrimidin-4-yl)-1H-benzo[d]imidazol-6-yl)-1-fluoro-2-methylbut-3-yn-2-ol]: 2.3 nM and 707 nM.
For the molecule `CC(O)(C#Cc1ccc2c(C(=O)N3CCOCC3)nn(-c3ccnc(N)n3)c2c1)c1ncccn1` (stereo not drawn) [Example T1.1-130, [1-(2-aminopyrimidin-4-yl)-6-(3-hydroxy-3-pyrimidin-2-yl-but-1-ynyl)indazol-3-yl]-morpholino-methanone], the Ki in test [1] is not below 5000 nM.
As to `COCCNc1nc2ccc(C#CC(C)(O)c3nc(C)cs3)cc2n1-c1ccnc(N)n1` (stereo not drawn) [Example T1.1-131, 4-[3-(2-aminopyrimidin-4-yl)-2-(2-methoxyethylamino)benzimidazol-5-yl]-2-(4-methylthiazol-2-yl)but-3-yn-2-ol], the inhibition constant Ki in test [1] came to 9 nM.
On the same count and under the same terms, the result for `CC(O)(C#Cc1ccc2nc(OCCO)n(-c3ccnc(N)n3)c2c1)c1ccc(Cl)cn1` (stereo not drawn) [Example T1.1-133, 4-[3-(2-aminopyrimidin-4-yl)-2-(2-hydroxyethoxy)benzimidazol-5-yl]-2-(5-chloro-2-pyridyl)but-3-yn-2-ol] reads 0.4 nM; that for `Cc1nn(-c2ccnc(N)n2)c2cc(C#CC3(O)CCCN(C)C3=O)ccc12` (stereo not drawn) [Example T1.1-136, 3-[2-[1-(2-aminopyrimidin-4-yl)-3-methyl-indazol-6-yl]ethynyl]-3-hydroxy-1-methyl-piperidin-2-one], 2 nM.
On to `Cc1nnc(C(C)(O)C#Cc2ccc3c(C(=O)N4CCOCC4)nn(-c4ccnc(N)n4)c3c2)o1` (stereo not drawn) [Example T1.1-137, [1-(2-aminopyrimidin-4-yl)-6-[3-hydroxy-3-(5-methyl-1,3,4-oxadiazol-2-yl)but-1-ynyl]indazol-3-yl]-morpholino-methanone], for which the Ki in test [1] came to 7 nM.
On the same count and under the same terms, the result for `COCCN(C)C(=O)c1nn(-c2ccnc(N)n2)c2cc(C#CC(C)(O)c3ncccn3)ccc12` (stereo not drawn) [Example T1.1-138, 1-(2-aminopyrimidin-4-yl)-6-(3-hydroxy-3-pyrimidin-2-yl-but-1-ynyl)-N-(2-methoxyethyl)-N-methyl-indazole-3-carboxamide] reads 0.2 nM; that for `CC(O)(C#Cc1ccc2c(C(=O)N3CC(F)(F)C3)nn(-c3ccnc(N)n3)c2c1)c1ncccn1` (stereo not drawn) [Example T1.1-139, [1-(2-aminopyrimidin-4-yl)-6-(3-hydroxy-3-pyrimidin-2-yl-but-1-ynyl)indazol-3-yl]-(3,3-difluoroazetidin-1-yl)methanone], 20 nM; that for `CC(O)(C#Cc1ccc2c(C(=O)N3CC4CC4C3)nn(-c3ccnc(N)n3)c2c1)c1ncccn1` (stereo not drawn) [Example T1.1-140, [1-(2-aminopyrimidin-4-yl)-6-(3-hydroxy-3-pyrimidin-2-yl-but-1-ynyl)indazol-3-yl]-(3-azabicyclo[3.1.0]hexan-3-yl)methanone], 5.28 nM.
On the same count and under the same terms, the result for `CN(C(=O)c1nn(-c2ccnc(N)n2)c2cc(C#CC(C)(O)c3ncccn3)ccc12)c1ccccn1` (stereo not drawn) [Example T1.1-142, 1-(2-aminopyrimidin-4-yl)-6-(3-hydroxy-3-pyrimidin-2-yl-but-1-ynyl)-N-methyl-N-(2-pyridyl)indazole-3-carboxamide] reads 7 nM; that for `CC(O)(C#Cc1ccc2c(C(=O)Nc3cccnc3)nn(-c3ccnc(N)n3)c2c1)c1ncccn1` (stereo not drawn) [Example T1.1-143, 1-(2-aminopyrimidin-4-yl)-6-(3-hydroxy-3-pyrimidin-2-yl-but-1-ynyl)-N-(3-pyridyl) indazole-3-carboxamide], 2 nM; that for `CC(O)(C#Cc1ccc2c(C(=O)N3CCOCC3)nn(-c3ccnc(N)n3)c2c1)c1ncco1` (stereo not drawn) [Example T1.1-144, [1-(2-aminopyrimidin-4-yl)-6-(3-hydroxy-3-oxazol-2-yl-but-1-ynyl)indazol-3-yl]-morpholino-methanone], 3 nM.
Still for that read-out and setting: the result for `CC(O)(C#Cc1ccc2c(C(=O)N3CCCC(O)C3)nn(-c3ccnc(N)n3)c2c1)c1ncccn1` (stereo not drawn) [Example T1.1-145, [1-(2-aminopyrimidin-4-yl)-6-(3-hydroxy-3-pyrimidin-2-yl-but-1-ynyl)indazol-3-yl]-(3-hydroxy-1-piperidyl)methanone] reads 11 nM; that for `CC(O)(C#Cc1ccc2c(C(=O)N3CC(O)C3)nn(-c3ccnc(N)n3)c2c1)c1ncccn1` (stereo not drawn) [Example T1.1-146, [1-(2-aminopyrimidin-4-yl)-6-(3-hydroxy-3-pyrimidin-2-yl-but-1-ynyl)indazol-3-yl]-(3-hydroxyazetidin-1-yl)methanone], 3400 nM; that for `CC(O)(C#Cc1ccc2c(C(=O)N3CC(C#N)C3)nn(-c3ccnc(N)n3)c2c1)c1ncccn1` (stereo not drawn) [Example T1.1-147, 1-[1-(2-aminopyrimidin-4-yl)-6-(3-hydroxy-3-pyrimidin-2-yl-but-1-ynyl)indazole-3-carbonyl]azetidine-3-carbonitrile], 4 nM.
On to `CC(O)(C#Cc1ccc2c(C(=O)NC3COC3)nn(-c3ccnc(N)n3)c2c1)c1ncccn1` (stereo not drawn) [Example T1.1-148, 1-(2-aminopyrimidin-4-yl)-6-(3-hydroxy-3-pyrimidin-2-yl-but-1-ynyl)-N-(oxetan-3-yl)indazole-3-carboxamide], for which the Ki in test [1] came out at 0.1 nM.
As for `CC(O)(C#Cc1ccc2c(C(=O)N3CCOCC3)nn(-c3ccnc(N)n3)c2c1)c1ncccn1` (stereo not drawn) [Example T1.1-149, [1-(2-aminopyrimidin-4-yl)-6-(3-hydroxy-3-pyrimidin-2-yl-but-1-ynyl)indazol-3-yl]-morpholino-methanone], in test [1], the Ki turned out to be 0.3 nM.
Still for that read-out and setting: the result for `CC(O)(C#Cc1ccc2c(C(=O)NCC#N)nn(-c3ccnc(N)n3)c2c1)c1ncccn1` (stereo not drawn) [Example T1.134, 1-(2-aminopyrimidin-4-yl)-N-(cyanomethyl)-6-(3-hydroxy-3-pyrimidin-2-yl-but-1-ynyl) indazole-3-carboxamide] reads 2 nM.

Broadly, the Ki is a measure of affinity in units of concentration, obtained from inhibition or displacement. As a reminder, the IC50 is the point on the concentration scale where inhibition reaches its midpoint.
